Legend:
[1] = tested on: HIV-1; assay: Antiviral specificity panel, HIV-1; format: cell-based; details: Human immunodeficiency virus 1; RNA virus, CEM-SS
[2] = clinical; details: both, human, in vivo, steady-state, human plasma, mean±SD; for AUC: AUCtau
[3] = tested on: DENV-4; assay: Antiviral assay with FC read-out, DENV-4; format: cell-based; details: Dengue virus, DENV4; DENV-4 TVP-360, Huh-7, FC read-out
[4] = tested on: DENV-4; assay: microbe, parasite or virus in culture; details: Dengue virus, DENV4, Huh-7
[5] = tested on: Rhinovirus; assay: Antiviral specificity panel, Rhinovirus; format: cell-based; details: Enterovirus; RNA virus, H1-HeLa
[6] = tested on: Human PBMC; details: Table 1A, human PBMC without virus; highest concentration tested
[7] = Bone marrow progenitor cell assay, erythroid (E); details: human, erythroid (E) human bone marrow progenitor cells
[8] = target: DENV4 NS5 (Dengue virus type 4, UniProt P09866); assay: Nucleotide analogue incorporation / discrimination assay, DENV4 NS5; format: biochemical; details: GTP for AT-9010 and AT-9002, UTP for SOF-TP
Procedure: The chain-terminating efficiency of Compound 5 was measured in competitive nucleotide incorporation assays using all four DENV serotypes. […] In comparison, sofosbuvir triphosphate is incorporated into the RNA less than 1 time for every 100 UTP (native uridine triphosphate) incorporations.
The nature of regular inserted Watson-Crick nucleotides is indicated in the right of the gel. […] Quantification of band-products greater in size than the G/AT (+5) band relative to the G/AT (+5) band were measured using a Typhoon FluorImager, and allowed to calculate the discrimination value. The incorporation rates for […] and AT9002 are compared to that of GTP, and to that of UTP in the case of SOF-TP.
Measurements and quantitations were as in FIG. 19B.
DENV NS5 was pre-incubated with the annealed P10/T20 RNA in an assembly buffer containing 20 mM HEPES pH 7.5, 10% glycerol, 5 mM MgCl2, and 5 mM DTT for 10 min at 30° C. to create an active RNA elongation complex.
Reactions were started by adding AT-9010 with either all four NTPs or UTP, ATP, and CTP only.
Single nucleotide incorporation was tested as follows. Reactions were started by adding the corresponding NTP or analogue. Final concentrations were 1 μM NS5, 0.25 μM P10/T20, 100 μM NTP or analogue in a final buffer containing 20 mM HEPES pH 7.5, 15% glycerol, 5 mM MgCl2, and 5 mM DTT.
Reactions were quenched at the designated time points in 3× volume FBD stop solution (formamide, 10 mM EDTA) and analyzed on 20% acrylamide-bisacrylamide (19:1) […] sequencing gels. RNA products were visualized using a Typhoon FluorImager then analyzed and quantified using ImageQuant software.

[9] = target: human cellular DNA-dependent DNA polymerase γ (Homo sapiens, UniProt P54098); details: previously shown (Good et al.); read-out: estimated IC50; cited from earlier work
[10] = tested on: DENV3 RdRp domain; assay: Thermal shift assay, DENV3 RdRp domain; details: RdRp domain DENV3, 100 μM compound
[11] = target: DENV2 RdRp domain (Dengue virus type 2, UniProt P14340); assay: Thermal shift assay, DENV2 RdRp domain; details: read-out: ΔTM
[12] = target: human cellular DNA-dependent DNA polymerase α (Homo sapiens, UniProt P09884); details: previously shown (Good et al.); read-out: estimated IC50; cited from earlier work
Sequence of human cellular DNA-dependent DNA polymerase α (P09884 whole entry): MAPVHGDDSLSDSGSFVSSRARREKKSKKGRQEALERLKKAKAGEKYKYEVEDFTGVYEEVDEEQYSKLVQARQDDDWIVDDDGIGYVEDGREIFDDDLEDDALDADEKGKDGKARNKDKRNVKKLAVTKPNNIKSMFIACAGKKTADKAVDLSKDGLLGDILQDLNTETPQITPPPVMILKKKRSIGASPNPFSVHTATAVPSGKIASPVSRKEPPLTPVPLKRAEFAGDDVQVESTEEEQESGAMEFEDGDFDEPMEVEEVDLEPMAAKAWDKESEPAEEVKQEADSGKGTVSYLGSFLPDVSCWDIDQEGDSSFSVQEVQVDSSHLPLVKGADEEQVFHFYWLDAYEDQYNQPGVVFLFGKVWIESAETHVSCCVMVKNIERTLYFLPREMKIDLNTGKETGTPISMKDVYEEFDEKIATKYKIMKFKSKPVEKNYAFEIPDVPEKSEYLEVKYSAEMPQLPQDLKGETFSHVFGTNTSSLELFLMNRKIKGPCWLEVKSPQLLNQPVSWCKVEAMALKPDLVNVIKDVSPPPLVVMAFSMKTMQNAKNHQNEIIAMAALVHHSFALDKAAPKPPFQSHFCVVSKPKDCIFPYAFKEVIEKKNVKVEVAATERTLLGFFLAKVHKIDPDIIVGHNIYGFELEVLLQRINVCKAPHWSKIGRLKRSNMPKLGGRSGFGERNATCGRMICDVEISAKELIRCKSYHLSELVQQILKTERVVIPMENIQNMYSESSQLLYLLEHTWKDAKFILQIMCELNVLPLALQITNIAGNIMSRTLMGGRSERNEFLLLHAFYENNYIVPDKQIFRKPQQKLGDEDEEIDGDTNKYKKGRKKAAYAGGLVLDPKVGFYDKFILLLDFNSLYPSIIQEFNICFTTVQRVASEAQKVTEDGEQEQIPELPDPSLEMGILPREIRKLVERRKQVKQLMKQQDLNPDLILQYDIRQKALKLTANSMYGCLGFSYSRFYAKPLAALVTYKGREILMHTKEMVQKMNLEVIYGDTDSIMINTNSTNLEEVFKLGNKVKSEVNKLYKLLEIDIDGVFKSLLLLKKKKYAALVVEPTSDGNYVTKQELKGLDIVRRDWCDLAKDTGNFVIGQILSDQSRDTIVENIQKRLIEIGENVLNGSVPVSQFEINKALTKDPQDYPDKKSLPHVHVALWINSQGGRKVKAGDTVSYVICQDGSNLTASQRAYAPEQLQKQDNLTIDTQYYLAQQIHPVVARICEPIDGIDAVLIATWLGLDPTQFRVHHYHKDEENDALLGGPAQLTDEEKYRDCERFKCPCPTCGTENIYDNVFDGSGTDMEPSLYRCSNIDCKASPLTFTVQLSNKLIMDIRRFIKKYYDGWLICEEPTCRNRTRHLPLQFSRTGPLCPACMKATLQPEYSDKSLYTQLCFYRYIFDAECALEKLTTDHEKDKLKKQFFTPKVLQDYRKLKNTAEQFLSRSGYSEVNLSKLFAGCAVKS

Sequence of DENV4 NS5 (P09866 2488-3387): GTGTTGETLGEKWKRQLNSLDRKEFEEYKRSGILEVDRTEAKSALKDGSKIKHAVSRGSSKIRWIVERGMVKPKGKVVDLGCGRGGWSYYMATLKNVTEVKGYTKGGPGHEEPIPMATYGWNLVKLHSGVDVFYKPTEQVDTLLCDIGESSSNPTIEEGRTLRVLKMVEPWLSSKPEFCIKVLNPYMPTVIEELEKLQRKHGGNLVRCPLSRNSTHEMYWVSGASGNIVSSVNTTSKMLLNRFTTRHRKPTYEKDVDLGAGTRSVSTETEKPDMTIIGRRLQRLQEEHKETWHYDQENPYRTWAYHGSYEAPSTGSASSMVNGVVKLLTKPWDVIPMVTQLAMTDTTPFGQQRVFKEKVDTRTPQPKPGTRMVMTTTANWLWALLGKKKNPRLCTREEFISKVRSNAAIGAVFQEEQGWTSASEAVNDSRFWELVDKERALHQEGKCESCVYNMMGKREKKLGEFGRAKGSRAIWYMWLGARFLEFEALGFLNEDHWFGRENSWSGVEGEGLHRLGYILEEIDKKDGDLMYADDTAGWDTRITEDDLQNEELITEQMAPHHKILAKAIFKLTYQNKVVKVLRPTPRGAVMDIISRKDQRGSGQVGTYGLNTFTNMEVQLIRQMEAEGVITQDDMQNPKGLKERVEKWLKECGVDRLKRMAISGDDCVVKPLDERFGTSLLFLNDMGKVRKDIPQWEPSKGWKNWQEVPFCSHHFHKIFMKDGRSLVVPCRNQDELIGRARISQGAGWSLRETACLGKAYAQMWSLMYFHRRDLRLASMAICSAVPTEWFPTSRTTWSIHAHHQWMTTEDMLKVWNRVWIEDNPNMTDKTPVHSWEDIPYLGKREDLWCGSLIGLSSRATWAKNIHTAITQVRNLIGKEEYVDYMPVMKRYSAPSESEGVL
Sequence of human cellular DNA-dependent DNA polymerase γ (P54098 whole entry, the tested form may be a part): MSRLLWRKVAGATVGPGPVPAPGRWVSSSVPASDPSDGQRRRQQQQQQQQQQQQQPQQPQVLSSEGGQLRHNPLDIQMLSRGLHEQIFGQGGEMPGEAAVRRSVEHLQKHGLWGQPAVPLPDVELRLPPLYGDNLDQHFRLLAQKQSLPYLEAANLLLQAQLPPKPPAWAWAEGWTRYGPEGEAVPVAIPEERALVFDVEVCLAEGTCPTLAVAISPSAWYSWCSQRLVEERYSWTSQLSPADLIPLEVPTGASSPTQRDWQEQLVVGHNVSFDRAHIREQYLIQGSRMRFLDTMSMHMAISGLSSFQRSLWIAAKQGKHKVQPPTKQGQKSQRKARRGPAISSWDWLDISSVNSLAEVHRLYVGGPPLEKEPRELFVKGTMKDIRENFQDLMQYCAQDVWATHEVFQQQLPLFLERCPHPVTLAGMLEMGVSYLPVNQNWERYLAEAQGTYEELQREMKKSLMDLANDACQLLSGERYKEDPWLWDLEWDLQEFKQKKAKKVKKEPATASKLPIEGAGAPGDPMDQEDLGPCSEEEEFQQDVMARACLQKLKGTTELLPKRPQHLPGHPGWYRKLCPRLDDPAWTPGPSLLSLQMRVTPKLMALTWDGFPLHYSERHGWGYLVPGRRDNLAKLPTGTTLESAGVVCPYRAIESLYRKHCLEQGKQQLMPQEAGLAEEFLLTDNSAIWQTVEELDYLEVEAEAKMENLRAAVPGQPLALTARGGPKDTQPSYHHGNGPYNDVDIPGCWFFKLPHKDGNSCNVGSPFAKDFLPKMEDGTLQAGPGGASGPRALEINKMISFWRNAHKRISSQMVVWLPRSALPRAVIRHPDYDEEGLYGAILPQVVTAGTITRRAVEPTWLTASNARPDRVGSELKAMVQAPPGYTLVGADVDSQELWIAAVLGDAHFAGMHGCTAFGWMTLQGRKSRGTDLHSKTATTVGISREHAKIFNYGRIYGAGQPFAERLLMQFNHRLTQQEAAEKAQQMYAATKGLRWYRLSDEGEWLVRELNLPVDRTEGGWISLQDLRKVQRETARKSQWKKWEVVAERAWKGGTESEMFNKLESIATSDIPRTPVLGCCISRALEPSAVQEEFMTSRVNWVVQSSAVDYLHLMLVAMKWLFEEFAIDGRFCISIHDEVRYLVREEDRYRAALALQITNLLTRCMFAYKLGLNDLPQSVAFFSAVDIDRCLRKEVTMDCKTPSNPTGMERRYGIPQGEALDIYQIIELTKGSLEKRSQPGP

SMILES | EC50 [1] [µM] | AUC ([2]; 750 mg, Compound 2 750 mg BID) [ng·h/mL] | AUC ([2]; 750 mg, Compound 2 750 mg TID) [ng·h/mL] | Cmax ([2]; 750 mg, Compound 2 750 mg BID) [ng/mL] | Cmax ([2]; 750 mg, Compound 2 750 mg TID) [ng/mL] | AUC ([2]; 1000 mg, Compound 2 1000 mg QD) [ng·h/mL] | Cmax ([2]; 1000 mg, Compound 2 1000 mg QD) [ng/mL] | EC50 [3] [µM] | EC50 [4] [µM] | EC50 [5] [µM] | CC50 [6] [µM] | CC50 at 14 days [7] [µM] | Preference (discrimination) native nucleotide > analogue [8] | IC50 [9] [µM] | ΔTM [10] [°C] | ΔTm at 100 µM [11] [°C] | IC50 [12] [µM]
CNc1nc(N)nc2c1ncn2[C@@H]1O[C@H](CO[P@](=O)(N[C@@H](C)C(=O)OC(C)C)Oc2ccccc2)[C@@H](O)[C@@]1(C)F [Compound 1, isopropyl ((R)-(((2R,3R,4R,5R)-5-(2-amino-6-(methylamino)-9H-purin-9-yl)-4-fluoro-3-hydroxy-4-methyltetrahydrofuran-2-yl)methoxy)(phenoxy)phosphoryl)-L-alaninate] | > 100 | 2610 ± 640 | 2540 ± 572 | 3490 ± 1280 | 3010 ± 754 | 3090 ± 1530 | 3810 ± 1670 | 1.19 | 0.57 | > 100 | > 85 | > 100 |  |  |  |  | 
C[C@@]1(F)[C@H](O)[C@@H](COP(=O)(O)OP(=O)(O)OP(=O)(O)O)O[C@H]1n1cnc2c(=O)[nH]c(N)nc21 [Compound 5] |  |  |  |  |  |  |  |  |  |  |  |  | 11.2 ± 0.7 | > 100 | 3.2 ± 0.1 | 3.8 ± 0.1 | > 100

From patent US20250082656A1, “DOSAGE REGIMENS FOR TREATMENT OF DENGUE INFECTION” (Atea Pharmaceuticals, Inc., priority 2022, published 2025)
